From patent US7829524B2, “Antimicrobial peptides” (Novozymes Adenium Biotech A/S, priority 2003, dated 2010)
Where two headings read alike, the source gives them in different places.

Test system: E. coli TOP10
Format: cell-based
Details: end point OD450, 14 hours
Protocol: A range of synthetic antimicrobial polypeptides were expressed in E. coli TOP10 (Invitrogen) using arabinose as inducer, as disclosed in Example 1 of International patent application WO 00/73433 (with minor modifications). […] Briefly, fresh overnight cultures grown in RM medium containing 0.2% glucose and ampicillin (100 μg/ml) were diluted 300-fold into 150 microliter of RM containing 0.2% glycerol and ampicillin (100 μg/ml) and different concentrations of arabinose (0, 0.01% or 0.1%) in a microtiter plate and incubated at 37 degrees Celsius with vigorous shaking. The growth curve was monitored by measuring OD450 using a Bioscreen C Microbiology reader (Thermo Electron Corporation) at intervals of 30 minutes for 14 hours (see Invitrogen protocol of the pBAD/gill A, B and C vectors catalogue nos. V450-01 for buffer and media composition). The percentage of growth inhibition was calculated as the end point OD measurement of each sample divided by the end point OD measurement obtained from cells containing the control vector and multiplied by 100. The formula is the following: [formula] where “blank OD” corresponds to the OD of an empty well.

Sequence	Growth inhibition using 0.1% arabinose (%) (Table 5)	also measured
GLLRRFRKKIGGKLKKYGQIIKHLRILVP (Synthetic antimicrobial peptide) [SEQ ID NO: 5]	–	Growth inhibition using 0.01% arabinose (%) (Table 4): 94%; Growth inhibition using 0.1% arabinose (%) (Table 4): 100%
GLFRRIRRKIGKKFKKFGQVIKPLRKLVP (Synthetic antimicrobial peptide) [SEQ ID NO: 52]	95%	–
GLLRRLRRKIGKKLKKFGQKIKHIRILVP (Synthetic antimicrobial peptide) [SEQ ID NO: 15]	–	Growth inhibition using 0.01% arabinose (%) (Table 4): 96%; Growth inhibition using 0.1% arabinose (%) (Table 4): 100%
GRFRRFRKKIGKKFKKFGQMIKALRILVP (Synthetic antimicrobial peptide) [SEQ ID NO: 29]	95%	–
GRFRRFRKKIGGKLKKIGQVIKDIRILVP (Synthetic antimicrobial peptide) [SEQ ID NO: 28]	95%	–
GLFRRLRRKIGKKFKKFGQKIKPLRKLVP (Synthetic antimicrobial peptide) [SEQ ID NO: 46]	96%	–
GLLRRFRBEIGKKLKKYGQKIKHLRKLVP (GLLRRFREKIGKKLKKYGQKIKHLRKLVP; Synthetic antimicrobial peptide) [SEQ ID NO: 45]	79%	–
GLLRRFRNKIGKKLKKIGQKIKPIRKLVP (Synthetic antimicrobial peptide) [SEQ ID NO: 50]	92%	–
GLLKRLRKKIGKKLKKIGPKIKHIRKLVP (Synthetic antimicrobial peptide) [SEQ ID NO: 10]	–	Growth inhibition using 0.01% arabinose (%) (Table 4): 93%; Growth inhibition using 0.1% arabinose (%) (Table 4): 100%
GLLRRLRGKIGKKLKKIGQKIKAIRKLVP (Synthetic antimicrobial peptide) [SEQ ID NO: 4]	–	Growth inhibition using 0.01% arabinose (%) (Table 4): 89%; Growth inhibition using 0.1% arabinose (%) (Table 4): 100%
GRLRRLRRKIGEKLKKFGQVIKALRILVP (Synthetic antimicrobial peptide) [SEQ ID NO: 12]	–	Growth inhibition using 0.01% arabinose (%) (Table 4): 94%; Growth inhibition using 0.1% arabinose (%) (Table 4): 99%
GLFKRLRKKIGKKLKKFGQKIKPLRKLVP (Synthetic antimicrobial peptide) [SEQ ID NO: 18]	94%	–
GLLKRFRGKIGKKLKKYGQLIKAIRILVP (Synthetic antimicrobial peptide) [SEQ ID NO: 22]	90%	–
GLFRRLRKKIGKKLKKIAR (Synthetic antimicrobial peptide) [SEQ ID NO: 64]	–	Growth inhibition using 0.01% arabinose (%) (Table 6): 92%; Growth inhibition using 0.1% arabinose (%) (Table 6): 99%
GLLKRLGRKIGKKFKKIAR (Synthetic antimicrobial peptide) [SEQ ID NO: 61]	–	Growth inhibition using 0.01% arabinose (%) (Table 6): 89%; Growth inhibition using 0.1% arabinose (%) (Table 6): 98%
GRLRRLGKIUGEKLKKFGQMIKHIRILVP (GRLRRLGKKIGEKLKKFGQMIKHIRILVP; Synthetic antimicrobial peptide) [SEQ ID NO: 53]	84%	–
GRLRRFRKKIGKKLKKIGQMIKHIRILVP (Synthetic antimicrobial peptide) [SEQ ID NO: 30]	95%	–
GLFRRLRKKIGKKFKKIAR (Synthetic antimicrobial peptide) [SEQ ID NO: 69]	–	Growth inhibition using 0.01% arabinose (%) (Table 6): 86%; Growth inhibition using 0.1% arabinose (%) (Table 6): 99%
GLLRRLGKKIGKKFKKFGQVIKALRILVP (Synthetic antimicrobial peptide) [SEQ ID NO: 35]	95%	–
GLLRRLRKKIGRKFKKIAR (Synthetic antimicrobial peptide) [SEQ ID NO: 68]	–	Growth inhibition using 0.01% arabinose (%) (Table 6): 91%; Growth inhibition using 0.1% arabinose (%) (Table 6): 100%
GLFRRLRGKIGKKLKKIGQKIKAIRILVP (Synthetic antimicrobial peptide) [SEQ ID NO: 33]	91%	–
GLLRRFRRKIGRKLKKYGLMIKPLRKLVP (Synthetic antimicrobial peptide) [SEQ ID NO: 21]	94%	–
GLLRRFGRKIGKKFKKFGPKIKILRKLVP (GLLRRFGRKIGKKFKKFGPKIKHLRKLVP; Synthetic antimicrobial peptide) [SEQ ID NO: 19]	91%	–
GLFRRLGKKIGKKIKKFGQVIKHIRILVP (GLFRRLGKKIGKKLKKFGQVIKHIRILVP; Synthetic antimicrobial peptide) [SEQ ID NO: 34]	92%	–
GLLRRFGKKIGKKFKKYGQKIKNLRILVP (Synthetic antimicrobial peptide) [SEQ ID NO: 24]	92%	–
GLFRRFRRKIGKKLKKFGQKIKPLRKLVP (Synthetic antimicrobial peptide) [SEQ ID NO: 20]	97%	–

Sequence	Growth inhibition using 0.1% arabinose (%) (Table 5)	also measured
GLLKRLGRKIGKKLKKFGQKIKAIRKLVP (Synthetic antimicrobial peptide) [SEQ ID NO: 8]	–	Growth inhibition using 0.01% arabinose (%) (Table 4): 97%; Growth inhibition using 0.1% arabinose (%) (Table 4): 100%
GRFKRFWKKIGRKFKKIGQMLKPIRILVP (Synthetic antimicrobial peptide) [SEQ ID NO: 9]	–	Growth inhibition using 0.01% arabinose (%) (Table 4): 96%; Growth inhibition using 0.1% arabinose (%) (Table 4): 100%
GLLRRIIGKKIGKKFKKCGQVIKAIRILVP (GLLRRLGKKIGKKFKKCGQVIKAIRILVP; Synthetic antimicrobial peptide) [SEQ ID NO: 54]	89%	–
GLLRRFRKKIGKKLKKITR (Synthetic antimicrobial peptide) [SEQ ID NO: 67]	–	Growth inhibition using 0.01% arabinose (%) (Table 6): 90%; Growth inhibition using 0.1% arabinose (%) (Table 6): 100%
GLVRRFRRKIGKKLKKIGQIIKAIRKLVP (Synthetic antimicrobial peptide) [SEQ ID NO: 31]	96%	–
GLLRRFGRKIGKKFKKFGPKIKHLRKLVP (Synthetic antimicrobial peptide) [SEQ ID NO: 26]	92%	–
GLLRRLRRKIGKKFKKIGQVIKHLRKLVP (Synthetic antimicrobial peptide) [SEQ ID NO: 32]	97%	–
GLFRRFGKKIGKKIIKKIGQKIKPIHKLVP (GLFRRFGKKIGKKLKKIGQKIKPIHKLVP; Synthetic antimicrobial peptide) [SEQ ID NO: 43]	76%	–
GRFRRFRKKIGKKLKKIGLVIKHIRILVP (Synthetic antimicrobial peptide) [SEQ ID NO: 14]	–	Growth inhibition using 0.01% arabinose (%) (Table 4): 94%; Growth inhibition using 0.1% arabinose (%) (Table 4): 100%
GRFRRLGRKIGEKLKKFGQVIKAIRILVP (Synthetic antimicrobial peptide) [SEQ ID NO: 42]	95%	–
GLLRRLRRKIGGKLKKFGQKIKPLRKLVP (Synthetic antimicrobial peptide) [SEQ ID NO: 6]	–	Growth inhibition using 0.01% arabinose (%) (Table 4): 92%; Growth inhibition using 0.1% arabinose (%) (Table 4): 100%
GLFRRLRKKIGKKLKKIGQLIKAIRILVP (Synthetic antimicrobial peptide) [SEQ ID NO: 23]	97%	–
GLLRRLGRKIGKKLKKIGQKIKAIRILVP (Synthetic antimicrobial peptide) [SEQ ID NO: 49]	96%	–
GLFRRFWKKIGRKLKKIGQKIKPLQILVP (Synthetic antimicrobial peptide) [SEQ ID NO: 47]	79%	–
GLLRRLRKKIGKKLKKIGQKIKPIRKLVP (Synthetic antimicrobial peptide) [SEQ ID NO: 56]	94%	–
GRLRRFGKKIGKKIKKFGQLIKALRILVP (GRLRRFGKKIGKKLKKFGQLIKALRILVP; Synthetic antimicrobial peptide) [SEQ ID NO: 40]	95%	–
GLLKRLRKKIGKKLKKIGQMIKHIRILVP (Synthetic antimicrobial peptide) [SEQ ID NO: 44]	93%	–
GLFRRLKRKIGKKLKKIAR (Synthetic antimicrobial peptide) [SEQ ID NO: 65]	–	Growth inhibition using 0.01% arabinose (%) (Table 6): 91%; Growth inhibition using 0.1% arabinose (%) (Table 6): 99%
GRIRRLRRKIRKKLKKYGQKIKAIRKIVP (GRLRRLRRKIRKKLKKYGQKIKAIRKLVP; Synthetic antimicrobial peptide) [SEQ ID NO: 27]	96%	–
GLLRRLRKKIGKKLKFFGQKIKHIRILVP (GLLRRLRKKIGKKLKKFGQKIKHIRILVP; Synthetic antimicrobial peptide) [SEQ ID NO: 7]	–	Growth inhibition using 0.01% arabinose (%) (Table 4): 93%; Growth inhibition using 0.1% arabinose (%) (Table 4): 100%
GRLRRLWRKIGRKLKKYGQVIKHLRILVP (Synthetic antimicrobial peptide) [SEQ ID NO: 17]	–	Growth inhibition using 0.01% arabinose (%) (Table 4): 94%; Growth inhibition using 0.1% arabinose (%) (Table 4): 100%
GLLKRLRKKIGKKLKKIGQKIKPIRKLVP (Synthetic antimicrobial peptide) [SEQ ID NO: 25]	94%	–
GLLRRFRKKIGKKLKKYGQKIKHLRILVP (Synthetic antimicrobial peptide) [SEQ ID NO: 57]	95%	–
GLFRRLGRKIGKKLKKIGQVIKHIRILVP (Synthetic antimicrobial peptide) [SEQ ID NO: 36]	95%	–
GLFRRFGKKIGKKLKKIGQVIKALRILVP (Synthetic antimicrobial peptide) [SEQ ID NO: 39]	95%	–
